Read-outs that look alike come from different tables or passages of the source.
Columns and labels:
[1] = tested on: STAT3 signaling in EGFR-mutant cell lines; design: method as in PMID 25065853, PMID 22712764; settings: via autocrine- and paracrine-secreted factors such as IL-6; cited from earlier work
[2] = tested on: patients with EGFR-mutated NSCLC; settings: erlotinib monotherapy, cited from earlier work
[3] = tested on: patients with EGFR TKI-naive, EGFR-mutated NSCLC; test: Safety in phase 1b dose-escalation study: DLTs and adverse events (CTCAE version 4.03)
Text: This was an open-label, dose-escalation phase 1b study, which comprised a dose-escalation phase, followed by a planned, randomized, expansion phase of the combination of erlotinib plus momelotinib vs. erlotinib alone (ClinicalTrials.gov Identifier: NCT02206763). An erlotinib lead-in was utilized during the dose-escalation phase since erlotinib’s toxicities of rash and diarrhea onset in the first 2–3 weeks of treatment allowing for (i) dose adjustment for erlotinib-related toxicities as per clinical standard of care prior to combination with momelotinib; (ii) examination of the impact of momelotinib on erlotinib steady-state pharmacokinetics; and (iii) accurate assessment of toxicity attribution during the combination treatment period.
Patients were screened within 28 days of the start of study treatment and cycles were defined as 28 days. Erlotinib was self-administered orally once daily (QD) at least 1 h before or 2 h after a meal, with doses permitted at 50, 75, 100, or 150 mg. Dose reductions were permitted for management of erlotinib-related toxicity such as rash and diarrhea. Momelotinib was dose escalated following a standard 3 + 3 design starting at 100 mg QD (Table 1). Momelotinib was self-administered orally QD or twice daily (BID) (Table 1), with the latter planned dosing frequency differing from that used in myelofibrosis trials. Study treatment continued until disease progression, unacceptable toxicity, or consent withdrawal.
The primary endpoint was the incidence of dose-limiting toxicities (DLTs). Physical exams and safety labs were performed on day 1 of cycle 1, day 15 of cycle 1, and on the first day of each cycle thereafter. Adverse events (AEs) were coded using the Medical Dictionary for Regulatory Activities (MedDRA), graded according to the Common Terminology Criteria for Adverse Events (CTCAE) version 4.03, and collected until 30 days after the last dose of the study treatment.
DLTs were assessed during the first 28 days of combined erlotinib and momelotinib treatment and defined as clinically significant AEs related to study treatment. Prespecified hematologic DLTs only included grade 4 neutropenia (absolute neutrophil count [ANC] < 500/μL) and grade 4 thrombocytopenia (platelet count < 25,000/μL). Important exceptions for related grade 3 nonhematologic toxicities included grade 3 nausea or vomiting ≤ 48 h duration, diarrhea or rash that improved to grade 0 to 1 within 21 days of interruption of erlotinib, and alanine aminotransferase (ALT) or aspartate aminotransferase (AST) ≥ 5 times the upper limit of normal (ULN) that improved to ≤ 3 times the ULN within 21 days. Treatment delays of ≥ 28 days due to a treatment-emergent AEs (TEAEs) were also considered DLTs.
(§1) Any patient who received ≥ 1 dose of study drug was included in the safety and efficacy analyses. Descriptive statistics were used to summarize study characteristics, DLTs, and AEs, including by dose level. ORR was summarized with corresponding two-sided 90% exact confidence intervals (CIs) using the binomial distribution. Both OS and PFS were summarized using Kaplan–Meier estimates and corresponding 90% CIs. Patient concentration data and PK parameters for erlotinib, momelotinib, and its major metabolite GS-644603 were summarized by dose level using descriptive statistics.

[4] = tested on: aldehyde oxidase; design: method as in PMID 32393528; settings: cited from earlier work
[5] = Pharmacokinetics of erlotinib during monotherapy and in combination with momelotinib (LC–MS/MS); assay type: in vivo, human; settings: for Cmax: mean (%CV)
Experimental: (§2) Prior to momelotinib dosing, blood samples were collected before a dose of erlotinib and at 0.5, 1, 2, 4, 6, 8, and 24 h after erlotinib dosing. On day 15 of cycle 1, blood samples were collected at the same time points after dosing with momelotinib and erlotinib (the 24-h time point was only applicable for momelotinib QD dosing). The concentrations of momelotinib and its major metabolite GS-644603 were evaluated using a liquid chromatography-tandem mass spectrometry (LC–MS/MS) assay with solid phase extraction validated over the range of 0.5–1000 ng/mL for each analyte. The concentration of erlotinib was determined using an LC–MS/MS assay with protein precipitation validated over the range of 5–5000 ng/mL. […] Pharmacokinetic (PK) parameters were estimated using standard noncompartmental methods with Phoenix WinNonlin® software (Certara, Princeton, NJ).
as §1

[6] = tested on: pancreatic adenocarcinoma; design: method as in PMID 30105668; settings: momelotinib added to nab-paclitaxel and gemcitabine; cited from earlier work
[7] = tested on: pSTAT3 in IL-6–stimulated lymphocytes; test: pSTAT3 phospho-flow cytometry on whole blood of patients after 2 weeks on momelotinib (exploratory); assay type: cell-based, human; settings: whole blood of 8 patients, data not shown
[8] = tested on: EGFR-mutated NSCLC; test: Efficacy in phase 1b study per RECIST version 1.1 (ORR, DoR, PFS, OS); assay type: in vivo, human
Experimental: Imaging by computed tomography (CT) with contrast was performed at baseline, every 8 weeks during year 1 and every 12 weeks thereafter. If a patient had brain metastases, brain magnetic resonance imaging (MRI) was repeated on the same schedule.

[9] = Steady-state pharmacokinetics of momelotinib and metabolite GS-644603 (LC–MS/MS, noncompartmental); assay type: in vivo, human; settings: for half-life / Cmax / Tmax: day 15 of cycle 1; for half-life / Tmax: median (Q1, Q3); for Cmax: mean (%CV)
Experimental: as §2, §1

[10] = tested on: patients with KRAS-mutated NSCLC; design: method as in PMID 30087028; settings: cited from earlier work
[11] = tested on: JAK1/2-mediated STAT3 phosphorylation in IL-6–stimulated human peripheral blood mononuclear cells; settings: read-out: mean half maximal effective concentration, inhibition of JAK1/2-mediated STAT3 phosphorylation; cited from earlier work
[12] = tested on: patients who had progressed on at least 1 first-generation EGFR TKI; design: method as in PMID 31319994; settings: ruxolitinib in combination with afatinib, cited from earlier work
[13] = tested on: HCC-827 xenograft models; design: method as in PMID 22319590; settings: cited from earlier work
[14] = tested on: HCC4006 xenograft model; design: method as in PMID 25065853; settings: ruxolitinib plus erlotinib; cited from earlier work
[15] = tested on: patients with documented progression on erlotinib; design: method as in PMID 27613527; settings: ruxolitinib in combination with erlotinib, cited from earlier work
[16] = tested on: colony formation in soft agar assays; design: method as in PMID 22319590; settings: cited from earlier work
[17] = randomized phase 3 study, ref 33
[18] = erlotinib + momelotinib, all dose levels, n = 11
[19] = human, in vivo, oral, momelotinib analyte, momelotinib 100 mg QD + erlotinib, n = 2
[20] = human, in vivo, oral, momelotinib analyte, momelotinib 200 mg QD + erlotinib, n = 2
[21] = momelotinib 200 mg QD vs 100 mg QD, with erlotinib, momelotinib analyte
[22] = with erlotinib, compared with ref 35

## C#Cc1cccc(Nc2ncnc3cc(OCCOC)c(OCCOC)cc23)c1 [erlotinib]
[1]
  effect on STAT3 signaling: induce feedback activation of STAT3 signaling
[2]; randomized phase 3 study, ref 2
  neutropenia rate: 0%
[2]; [17]
  decreased neutrophils rate: 1.8%
  neutropenia rate: 4.5%
[2]; randomized phase 3 study, ref 34
  neutropenia rate: 6%
[2]
  ANCs less than < 1000/mm^3 (grade 3 or greater): rarely observed
  ORR, range over prior studies: 62.7 to 83%
  median PFS, range over prior studies: 9.7 to 11 months
[3]; 2 of 11 patients: grade 4 neutropenia, grade 1 hepatitis B
  patients who discontinued erlotinib due to AEs: 18.2%
[3]; across all dose levels, with momelotinib
  patients with dose reductions of erlotinib (all for AEs): 4 patients
[3]; [18]
  diarrhea considered related to erlotinib: 63.6%
  dry skin considered related to erlotinib: 54.5%
  paronychia considered related to erlotinib: 54.5%
[4]
  inhibition of aldehyde oxidase: potent inhibitor
[5]; day 1 of cycle 1 vs day 15 of cycle 1 with momelotinib, all momelotinib dose level groups
  erlotinib exposure (Cmax and AUCtau), monotherapy vs combination: comparable
[5]; erlotinib monotherapy, Day 1, dose level 2A cohort, erlotinib 150 mg QD, n = 3
  Cmax: 2040.0 (42.5) ng/mL
[5]; erlotinib with momelotinib 100 mg BID, Day 15, erlotinib 150 mg QD, n = 5
  Cmax: 1782.0 (17.3) ng/mL
[5]; erlotinib with momelotinib 200 mg QD, Day 15, erlotinib 150 mg QD, n = 2
  Cmax: 1740.0 (17.9) ng/mL
[5]; human, in vivo, oral, erlotinib monotherapy, Day 1, dose level 1 cohort, erlotinib 150 mg QD (1 patient 100 mg QD), n = 3, read-out: Cmax
  Cmax: 1810 ng/mL

## N#CCNC(=O)c1ccc(-c2ccnc(Nc3ccc(N4CCOCC4)cc3)n2)cc1 [momelotinib]
[6]
  efficacy vs historical control chemotherapy: did not improve efficacy
[7]; after 2 weeks on treatment
  pSTAT3 inhibition in IL-6–stimulated lymphocytes: temporarily inhibited pSTAT3 shortly after dosing
[7]
  correlation between total plasma momelotinib concentration and pSTAT3 inhibition: no correlation
[8]; momelotinib + erlotinib, across dose levels
  reductions from baseline in sum of diameters of target lesions, range: 23.1 to 71.7%
[8]; momelotinib + erlotinib, across dose levels, N = 11
  mean best percentage change in the sum of diameters of target lesions: −42.5 ± 17.1%
[8]; momelotinib + erlotinib, all dose levels, 6 of 11 patients, 90% CI 27.1–80.0
  overall response rate (ORR), confirmed, all partial: 54.5%
[8]; momelotinib + erlotinib, 1 patient, dose level 2B
  progressive disease (PD) as best response: 9.1%
[8]; momelotinib + erlotinib, 4 of 11 patients
  stable disease: 36.4%
[8]; momelotinib + erlotinib, 90% CI 4.4–9.6
  median duration of response (DoR): 7.2 months
[8]; momelotinib + erlotinib, Kaplan–Meier, 90% CI 6.2–12.4
  median PFS: 9.2 months
[8]; momelotinib + erlotinib, data finalization April 24, 2017
  median OS: not reached
[8]; patient at dose level 2B, momelotinib 100 mg BID + erlotinib
  longest DoR: 11.2 months
[9]; human, blood, oral, momelotinib analyte, momelotinib 100 mg BID + erlotinib, n = 4
  half-life: 8.6 h
[9]; human, in vivo, oral, momelotinib analyte, momelotinib 100 mg BID + erlotinib, n = 4
  Cmax: 884 ng/mL
[9]; [19]
  Cmax: 528 ng/mL
  half-life: 11.8 h
[9]; [20]
  Cmax: 852 ng/mL
  half-life: 10.2 h
[9]; human, in vivo, oral, momelotinib analyte, momelotinib 200 mg QD + erlotinib, n = 2, read-out: Tmax
  Tmax: 1.5 h
[9]; [21]
  dose proportionality of Cmax: slightly less than dose-proportional increase
  dose proportionality of exposure (AUCtau): slightly more than dose-proportional increase
[9]; momelotinib analyte, momelotinib 100 mg BID + erlotinib, n = 4
  Tmax: 1.0 (1.0, 1.5) h
[9]; momelotinib analyte, momelotinib 100 mg QD + erlotinib, n = 2
  Tmax: 1.0 (1.0, 1.0) h
[9]; steady state, day 15 of cycle 1, with erlotinib
  time to momelotinib peak concentration after dosing: 1 to 2 h
[9]; [22]
  momelotinib maximum concentration and exposure compared with earlier reports: higher than previously reported
  momelotinib terminal elimination half-life compared with earlier reports: prolonged
[3]; 1 year after start of momelotinib + erlotinib, led to discontinuation of both
  grade 1 reactivation of hepatitis B: 1 patient
[3]; all dose levels, momelotinib + erlotinib
  treatment-related deaths: no treatment-related deaths observed
[3]; human, in vivo
  dose interruptions of momelotinib: 5 n
  dose reductions of momelotinib (due to AEs): 2 n
  patients who discontinued momelotinib for AEs: 27.3%
[3]; in combination with standard dosing of erlotinib, 3 + 3 design, DLTs in first 28 days
  maximum tolerated dose (MTD) of momelotinib: 200 mg QD
[10]; momelotinib added to trametinib, KRAS-mutated NSCLC
  efficacy vs historical control trametinib monotherapy: did not improve efficacy
[10]; momelotinib dosed up to 150 mg BID in combination with trametinib
  neutropenia: no neutropenia event
[11]
  EC50: 259 nM
[5]; momelotinib 100 mg QD, 200 mg QD, 100 mg BID
  impact of momelotinib on the PK of erlotinib: no impact

## N#CC[C@H](C1CCCC1)n1cc(-c2ncnc3[nH]ccc23)cn1 [ruxolitinib]
[12]; patients with EGFR T790M, 5 of 20
  objective response: 25%
[12]; patients with EGFR T790M, 95% CI 2.5–7.3
  median PFS: 4.9 months
[12]; patients without EGFR T790M, 2 of 10
  objective response: 20%
[12]; patients without EGFR T790M, 95% CI 0.0–8.8
  median PFS: 3.1 months
[13]
  tumor growth: slowed tumor growth
[14]
  combination activity compared to EGFR inhibition alone: synergistic activity
[15]; 1 of 22 patients
  objective response: 5%
[15]; 95% CI 1.5–4.1
  median PFS: 2.2 months
[16]
  colony formation: decreased colony formation

Reference: article PMC8739290, “A phase 1b study of erlotinib and momelotinib for the treatment of EGFR-mutated, tyrosine kinase inhibitor-naive metastatic non-small cell lung cancer” (Cancer Chemotherapy and Pharmacology, 2021)
